Patent US11384096B2, “Substituted azetidine dihydrothienopyridines and their use as phosphodiesterase inhibitors” (UNION therapeutics A/S, priority 2017, dated 2022)

How the values were obtained:
[1] = biological target: human PDE4D catalytic domain (Homo sapiens (Human), UniProt Q08499); assay: PDE4 Assay (TR-FRET, cAMP cleavage); type: biochemical; conditions: 50% inhibition of substrate cleavage, read-out: PDE4 IC50 range
Description: The human PDE4D catalytic domain (UniProt no. Q08499 [[…]]) was incubated with a mixture of non-labelled cAMP (cyclic adenosine monophosphate) and fluorescein amidite (FAM) conjugated cAMP and titrated test or reference compound. Following brief incubation the enzymatic reaction was stopped by addition of binding buffer containing nanoparticles with immobilized trivalent metal ions capable of binding 1) AMP phospho groups and 2) terbium (Tb) donor fluorophores. Subsequent excitation of the Tb donor triggers time-resolved FRET to adjacent FAM acceptor molecules resulting in light emission. In the presence of a PDE4 inhibitor, AMP generation was reduced resulting in a lower fluorescence signal. The cAMP phosphodiester is not bound by the detection system.
The results were calculated as the molar concentrations resulting in 50% inhibition of the substrate cleavage compared to controls samples, and are expressed as IC50 (nM).

[2] = system: Human peripheral blood mononuclear cells (PBMC), TNF-α release; assay: TNF-α release in LPS-stimulated PBMC; type: cell-based; conditions: 30 minutes pre-incubation, stimulated for 18 hours with lipopolysaccharide, read-out: TNF-α IC50 range
Description: Human peripheral blood mononuclear cells (PBMC) were isolated from buffy coats. The blood is mixed with saline at a ratio of 1:1, and the PBMC were isolated using Lymphoprep Tubes™ (Nycomed, Norway). The PBMC were suspended in RPMI1640 with 0.5% human serum albumin, pen/strep and 2 mM L-glutamine at a concentration of 5×105 c/ml. The cells were pre-incubated for 30 minutes with the test compounds in 96 well tissue culture plates and stimulated for 18 hours with lipopolysaccharide […] (Sigma). TNF-α concentration in the supernatants was measured using homogeneous time-resolved fluorescence resonance (TR-FRET). The assay is quantified by measuring fluorescence at 665 nm (proportional to TNF-α concentration) and 620 nm (control).
Results were expressed as IC50 values calculated from inhibition curves using as positive controls the secretion in LPS stimulated wells and as negative controls the secretion in unstimulated cells.

human PDE4D catalytic domain, sequence (Q08499 380-740 limits assumed): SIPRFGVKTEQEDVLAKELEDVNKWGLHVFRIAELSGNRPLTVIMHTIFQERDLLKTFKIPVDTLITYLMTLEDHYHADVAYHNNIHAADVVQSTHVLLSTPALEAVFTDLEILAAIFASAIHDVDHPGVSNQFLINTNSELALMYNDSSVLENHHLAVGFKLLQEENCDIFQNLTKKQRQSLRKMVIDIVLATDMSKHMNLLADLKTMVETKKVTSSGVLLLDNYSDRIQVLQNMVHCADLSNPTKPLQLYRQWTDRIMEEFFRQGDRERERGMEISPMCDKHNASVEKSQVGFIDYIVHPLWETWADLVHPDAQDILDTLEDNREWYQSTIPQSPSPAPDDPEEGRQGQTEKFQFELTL

Q: How did the IC50 [1] turn out when COC(=O)N1CC[C@H](Nc2cc(N3CC(Oc4ccc(F)cc4)C3)nc3c2[S@+]([O-])CC3)C1 [Example 5, Methyl (3S)-3-[[(1R)-5-[3-(4-fluorophenoxy)azetidin-1-yl]-1-oxido-2,3-dihydrothieno[3,2-b]pyridine-7-yl]amino]pyrrolidine-1-carboxylate] was run?
A: 50 to 150 nM

Q: And the IC50 [2]?
A: 50 to 150 nM

Q: Which results are given for CC(=O)N1CC[C@H](Nc2cc(N3CC(Oc4ccc(F)cc4)C3)nc3c2[S@+]([O-])CC3)C1 [Example 6, 1-[(3S)-3-[[(1R)-5-[3-(4-Fluorophenoxy)azetidin-1-yl]-1-oxido-2,3-dihydrothieno[3,2-b]pyridin-7-yl]amino]pyrrolidin-1-yl]ethanone]?
A: IC50 [1]: < 10 nM; IC50 [2]: 10 to 50 nM

Q: For [O-][S+]1CCc2nc(N3CC(c4ccc(F)cc4)C3)cc(NC3CCOCC3)c21 (stereo in doubt) [Example 1, (1R)-5-(3-(4-Fluorophenyl)azetidin-1-yl)-7-((tetrahydro-2H-pyran-4-yl)amino)-2,3-dihydrothieno[3,2-b]pyridine 1-oxide], which IC50 [1] is on record?
A: 10 to 50 nM

Q: What about the IC50 [2] of the same molecule?
A: < 10 nM

Q: How did the IC50 [1] turn out when [O-][S@+]1CCc2nc(N3CC(c4ccccc4)C3)cc(NC3CCOCC3)c21 [Example 7, (1R)-5-(3-Phenylazetidin-1-yl)-7-((tetrahydro-2H-pyran-4-yl)amino)-2,3-dihydrothieno[3,2-b]pyridine-1-oxide] was run?
A: 10 to 50 nM

Q: What about the IC50 [2] of the same molecule?
A: 10 to 50 nM

Q: With COC(=O)N1CCC[C@@H](Nc2cc(N3CC(c4ccccc4)C3)nc3c2[S@+]([O-])CC3)C1 [Example 3] as the molecule, how does the IC50 [1] read?
A: < 10 nM

Q: What about the IC50 [2] of the same molecule?
A: < 10 nM

Q: With [O-][S+]1CCc2nc(N3CC(Oc4ccc(F)cc4)C3)cc(NC3CCOCC3)c21 (stereo in doubt) [Example 4, (1R)-5-(3-(4-Fluorophenoxy)azetidin-1-yl)-7-((tetrahydro-2H-pyran-4-yl)amino)-2,3-dihydrothieno[3,2-b]pyridine-1-oxide] as the molecule, how does the IC50 [1] read?
A: 10 to 50 nM

Q: And the IC50 [2]?
A: 10 to 50 nM

Q: COC(=O)N1CCC[C@@H](Nc2cc(N3CC(c4ccc(F)cc4)C3)nc3c2[S@+]([O-])CC3)C1 [Example 2, Methyl (3R)-3-[[(1R)-5-[3-(4-fluorophenyl)azetidin-1-yl]-1-oxido-2,3-dihydrothieno-[3,2-b]pyridin-7-yl]amino]piperidine-1-carboxylate] was tested. Which IC50 [1] did it give?
A: < 10 nM

Q: And the IC50 [2]?
A: < 10 nM
